# According to patent US11939330B1, “Pyrido[3,4-b]indole-6-carboxylic acid compounds as CK2 inhibitors” (KING FAISAL UNIVERSITY, priority 2023, dated 2024):
# How the values were obtained:
# MDA-MB-231 (breast) = assay: In vitro cytotoxic activity (MTT) assay, MDA-MB-231; assay type: cell-based; settings: Homo sapiens; MDA-MB-231 (breast) cells, exposed for 96 hours; read-out: IC50, concentration of compound eliciting a 50% inhibition of cell proliferation
# Method: (§1) Compounds 1-12 were screened for their in vitro cytotoxic activity utilizing a 3-(4,5-dimethyl-thiazol-2-yl)-2,5-diphenyltetrazolium bromide (MTT) assay against selected cancer human cell lines consisting of PC3 (prostate), HCT116 (colon), A375 (melanoma), H1299 (lung), MIAPaCa-2 (pancreas), HL60 (leukemia), MCF7 (breast), MDA-MB-231 (breast) (T. Mosmann, J. Immunol. Meth., 1983, 65, 55-63). The cells were cultured at 37° C. in RMPI1640 medium supplemented with 10% fetal bovine serum, 50 IU/mL penicillin, and 50 μg/mL streptomycin in a 5% CO2 incubator. All cells were sub-cultured 3 times/week by trypsinisation. Viable cells were seeded and allowed to adhere for 12 h before a test drug was added in 96-well plates at an initial density of 1.0×10^5 cells/mL. Tumour cell lines were separately exposed to various concentrations of the tested compounds followed by incubation at a temperature of 37° C. during 96 h inside a medium of fresh RMPI 1640. Cells were subsequently incubated at 37° C. using MTT at 0.5 mg/mL during 4 h. After removal of supernatant, formazan crystals were dissolved in isopropanol and the optical density was measured at 570 nm. CX-4945 was used as a positive control.
# MIAPaCa-2 (pancreas) = assay: In vitro cytotoxic activity (MTT) assay, MIAPaCa-2; assay type: cell-based; settings: Homo sapiens, MIA PaCa-2; MIAPaCa-2 (pancreas) cells, exposed for 96 hours; read-out: IC50, concentration of compound eliciting a 50% inhibition of cell proliferation
# Method: as §1
# A375 (melanoma) = assay: In vitro cytotoxic activity (MTT) assay, A375; assay type: cell-based; settings: Homo sapiens, A-375; A375 (melanoma) cells, exposed for 96 hours; read-out: IC50, concentration of compound eliciting a 50% inhibition of cell proliferation
# Method: as §1
# H1299 (lung) = assay: In vitro cytotoxic activity (MTT) assay, H1299; assay type: cell-based; settings: Homo sapiens, NCI-H1299; H1299 (lung) cells, exposed for 96 hours; read-out: IC50, concentration of compound eliciting a 50% inhibition of cell proliferation
# Method: as §1
# recombinant human CK2 = biological target: T1, recombinant human CK2 (Homo sapiens, UniProt P68400); assay: CK2 Kinase Assay (33P-ATP, substrate peptide RRRDDDSDDD); assay type: biochemical; settings: final ATP concentration 15 μM, 10 min at 30° C.; read-out: protein kinase CK2 activity IC50
# T1 construct: purchased Millipore
# T1 sequence (P68400 whole entry): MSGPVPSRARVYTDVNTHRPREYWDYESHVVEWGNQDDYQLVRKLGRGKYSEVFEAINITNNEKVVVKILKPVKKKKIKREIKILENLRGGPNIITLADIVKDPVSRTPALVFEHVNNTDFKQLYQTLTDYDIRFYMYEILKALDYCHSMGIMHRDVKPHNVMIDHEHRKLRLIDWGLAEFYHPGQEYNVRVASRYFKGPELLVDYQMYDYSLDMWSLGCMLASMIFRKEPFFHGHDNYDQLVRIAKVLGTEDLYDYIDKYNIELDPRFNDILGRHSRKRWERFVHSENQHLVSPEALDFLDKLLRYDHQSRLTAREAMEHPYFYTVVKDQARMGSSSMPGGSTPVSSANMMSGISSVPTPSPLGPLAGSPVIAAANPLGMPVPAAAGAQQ
# T1 sequence (P67870 whole entry partner): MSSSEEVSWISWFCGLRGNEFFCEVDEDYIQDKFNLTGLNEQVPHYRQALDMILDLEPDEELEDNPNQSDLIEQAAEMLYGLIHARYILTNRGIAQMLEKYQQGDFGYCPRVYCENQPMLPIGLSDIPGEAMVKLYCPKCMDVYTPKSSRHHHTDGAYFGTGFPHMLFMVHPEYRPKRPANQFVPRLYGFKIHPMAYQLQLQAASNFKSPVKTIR
# Method: CK2 Kinase Assay was conducted using the protocol as described in Pierre F. et al; J. Med. Chem. 2011, 54, 635-654. The tested compounds in aqueous solution were added at a volume of 10 μL to a reaction mixture comprising 10 μL of assay dilution buffer (ADB; 20 mM MOPS, pH 7.2, 25 mM β-glycerol phosphate, 5 mM EGTA, 1 mM sodium orthovanadate, and 1 mM dithiothreitol), 10 μL of substrate peptide (RRRDDDSDDD, dissolved in ADB at a concentration of 1 mM), 10 μL of recombinant human CK2 (RROP-holoenzyme, 25 ng dissolved in ADB; Millipore). Reactions were initiated by the addition of 10 μL of ATP solution (90% 75 mMMgCl2, 75 μM ATP (final ATP concentration:15 μM) dissolved in ADB; 10% [7-33P] ATP (stock 1 mCi/100 L; 3000 Ci/mmol (Perkin-Elmer) and maintained for 10 min at 30° C. The reactions were quenched with 100 μL of 0.75% phosphoric acid and then transferred to and filtered through a phosphor cellulose filter plate (Millipore). After washing each well five times with 0.75% phosphoric acid, the plate was dried under vacuum for 5 min and, following the addition of 15 μL of scintillation fluid to each well, the residual radioactivity was measured using a Wallac […] counter. The IC50 values were derived from eight concentrations of test inhibitors.
# HL60 (leukemia) = assay: In vitro cytotoxic activity (MTT) assay, HL60; assay type: cell-based; settings: Homo sapiens, HL-60; HL60 (leukemia) cells, exposed for 96 hours; read-out: IC50, concentration of compound eliciting a 50% inhibition of cell proliferation
# Method: as §1
# MCF7 (breast) = assay: In vitro cytotoxic activity (MTT) assay, MCF7; assay type: cell-based; settings: Homo sapiens; MCF7 (breast) cells, exposed for 96 hours; read-out: IC50, concentration of compound eliciting a 50% inhibition of cell proliferation
# Method: as §1
# PC3 (prostate) = assay: In vitro cytotoxic activity (MTT) assay, PC3; assay type: cell-based; settings: Homo sapiens, Prostate cell; PC3 (prostate) cells, exposed for 96 hours; read-out: IC50, concentration of compound eliciting a 50% inhibition of cell proliferation
# Method: as §1
# HCT116 (colon) = assay: In vitro cytotoxic activity (MTT) assay, HCT116; assay type: cell-based; settings: Homo sapiens, HCT-116; HCT116 (colon) cells, exposed for 96 hours; read-out: IC50, concentration of compound eliciting a 50% inhibition of cell proliferation
# Method: as §1
compound,measurement,setting,value
"O=C(O)c1ccc2c(c1)c1ccncc1n2C(=O)c1cccc(Cl)c1 [Compound 7, 9-(3-chlorobenzoyl)-9H-pyrido[3,4-b]indole-6-carboxylic acid]",IC50,MDA-MB-231 (breast),3900 nM
same,IC50,MIAPaCa-2 (pancreas),1900 nM
same,IC50,A375 (melanoma),3900 nM
same,IC50,H1299 (lung),1500 nM
same,IC50,recombinant human CK2,51 nM
same,IC50,HL60 (leukemia),1800 nM
same,IC50,MCF7 (breast),4700 nM
same,IC50,PC3 (prostate),1600 nM
same,IC50,HCT116 (colon),2400 nM
